According to ChEMBL document CHEMBL5500371, “Arginine and tryptophan-rich dendritic antimicrobial peptides that disrupt membranes for bacterial infection in vivo” (Eur J Med Chem, 2024):
Calls of active or inactive are those of the source. The rule behind the calls is not given here. Where a SMILES comes first, the peptide text is derived from it. Side-chain parts run from the residue outwards.

Legend:
[1] = system: Escherichia coli; assay: Resistant development in Escherichia coli assessed as increase in MIC at sub-MIC measured after 20 passages; assay type: functional, organism-based
[2] = system: Cell membrane; assay: Induction of cell membrane damage in Staphylococcus aureus assessed as PI uptake at 2 times MIC measured after 2 hrs by PI dye based flow cytometry analysis (reference value: 28.8%); assay type: cell membranes
[3] = system: Escherichia coli; assay: Bactericidal activity against Escherichia coli ATCC 25922 assessed as elimination of bacteria at 2 times MIC measured after 1 hrs by time kill assay; assay type: functional, organism-based
[4] = system: Escherichia coli; assay: Synergistic antibacterial activity against Escherichia coli ATCC 25922 assessed as fractional inhibitory concentration index at 0.25 to 4 times MIC incubated for 20 hrs in presence of vancomycin by checkerboard assay; assay type: functional, organism-based
[5] = system: Staphylococcus aureus; assay: Additive antibacterial activity against Staphylococcus aureus ATCC 25923 assessed as fractional inhibitory concentration index at 0.25 to 4 times MIC incubated for 20 hrs in presence of rifampicin by checkerboard assay; assay type: functional, organism-based
[6] = system: Escherichia coli; assay: […] activity against Escherichia coli ATCC 25922 infected in male BALB/c pulmonary infection model assessed as reduction in lung inflammation at 10 mg/kg, ip administered at 3 and 12 hrs post infection and measured 24 hrs post infection by H and E staining based analysis; assay type: functional, organism-based; details: time 12-21 hrs
[7] = system: Escherichia coli; assay: Antibacterial activity against Escherichia coli ATCC 25922 assessed as inhibition of bacterial growth incubated for 20 hrs in presence of MgCl2 by broth microdilution method (reference value: 4 microM); assay type: functional, organism-based
[8] = system: Cell membrane; assay: Induction of cytoplasmic membrane depolarization in Staphylococcus aureus assessed as increase in fluorescence intensity at 0.5 to 4 times MIC measured upto 13 mins by DISC3-5 dye based fluorescence analysis
[9] = system: Escherichia coli; assay: […] activity against Escherichia coli ATCC 25922 infected in male BALB/c pulmonary infection model assessed as reduction in inflammatory cell infiltration at 10 mg/kg, ip administered at 3 and 12 hrs post infection and measured 24 hrs post infection by H and E staining based analysis; assay type: functional, organism-based; details: time 12-21 hrs
[10] = system: Escherichia coli; assay: Antibacterial activity against Escherichia coli ATCC 25922 assessed as inhibition of bacterial growth incubated for 20 hrs in presence of KCl by broth microdilution method (reference value: 4 microM); assay type: functional, organism-based
[11] = system: Escherichia coli; assay: […] activity against Escherichia coli ATCC 25922 infected in male BALB/c pulmonary infection model assessed as reduction in liver bleeding at 10 mg/kg, ip administered at 3 and 12 hrs post infection and measured 24 hrs post infection by H and E staining based analysis; assay type: functional, organism-based; details: time 12-21 hrs
[12] = Systemic toxicity in male BALB/c mouse assessed as lung inflammatory cell infiltration at 109.31 mg/kg, ip administered as single dose by H and E staining based analysis; assay type: organism-based; details: in vivo
[13] = system: Staphylococcus aureus; assay: Antibiofilm activity against Staphylococcus aureus ATCC 25923 assessed as inhibition of biofilm formation at 0.5 to 4 times MIC measured after 24 hrs by crystal violet staining based analysis; assay type: functional, organism-based
[14] = system: Staphylococcus aureus; assay: Antibacterial activity against Staphylococcus aureus ATCC 25923 assessed as inhibition of bacterial growth upto 200 ug/ml pretreated with trypsin for 6 hrs and measured after 18 hrs by absorbance based method; assay type: functional, organism-based; details: dose <= 200.0 µg/ml, time 24.0 hrs
[15] = system: Escherichia coli; assay: Additive antibacterial activity against rifampicin resistant Escherichia coli ATCC 25922 assessed as fractional inhibitory concentration index at 0.25 to 4 times MIC incubated for 20 hrs in presence of rifampicin by checkerboard assay; assay type: functional
[16] = Systemic toxicity in male BALB/c mouse assessed as renal cell necrosis at 109.31 mg/kg, ip administered as single dose by H and E staining based analysis; assay type: organism-based; details: in vivo
[17] = system: Escherichia coli; assay: Additive antibacterial activity against Escherichia coli ATCC 25922 assessed as fractional inhibitory concentration index at 0.25 to 4 times MIC incubated for 20 hrs in presence of kanamycin by checkerboard assay; assay type: functional
[18] = Therapeutic index, ratio of MHC10 for hemolytic activity in mouse erythrocytes preincubated with 10% mouse serum for 1 hr to MIC for Escherichia coli ATCC 25922 preincubated with 10% mouse serum for 1 hr; assay type: toxicity, cell-based; details: mouse erythrocytes, read-out: TI
[19] = system: Staphylococcus aureus; assay: Antibacterial activity against Staphylococcus aureus ATCC 25923 assessed as inhibition of bacterial growth upto 20 ug/ml pretreated with chymotrypsin for 6 hrs and measured after 18 hrs by absorbance based method; assay type: functional, organism-based; details: dose <= 20.0 µg/ml, time 24.0 hrs
[20] = system: Erythrocyte; assay: Hemolytic activity in mouse erythrocytes assessed as 10% hemolysis incubated for 1 hr by absorbance based analysis; assay type: toxicity, cell-based
[21] = system: Escherichia coli; assay: Bactericidal activity against Escherichia coli ATCC 25922 assessed as elimination of bacteria at 2 times MIC measured within 2 hrs by time kill assay; assay type: functional, organism-based
[22] = Systemic toxicity in male BALB/c mouse assessed as hepatocyte hemorrhage at 109.31 mg/kg, ip administered as single dose by H and E staining based analysis; assay type: organism-based; details: hepatocytes
[23] = system: Escherichia coli; assay: Additive antibacterial activity against Escherichia coli ATCC 25922 assessed as fractional inhibitory concentration index at 0.25 to 4 times MIC incubated for 20 hrs in presence of rifampicin by checkerboard assay; assay type: functional
[24] = system: Cell membrane; assay: Disruption of cell membrane morphology in Escherichia coli assessed as release of cellular contents at 2 times MIC measured after 0.5 to 2 hrs by SEM analysis; assay type: cell membranes; details: time 0.5-2 hrs
[25] = system: Staphylococcus aureus; assay: Bactericidal activity against Staphylococcus aureus ATCC 25923 assessed as elimination of bacteria at 2 times MIC measured after 1.5 hrs by time kill assay; assay type: functional
[26] = system: Escherichia coli; assay: Antibacterial activity against Escherichia coli ATCC 25922 assessed as inhibition of bacterial growth incubated for 20 hrs in presence of MgCl2 by broth microdilution method (reference value: 16 microM); assay type: functional
[27] = system: Staphylococcus aureus; assay: Antibacterial activity against Staphylococcus aureus ATCC 25923 assessed as inhibition of bacterial growth incubated for 20 hrs in presence of KCl by broth microdilution method (reference value: 8 microM); assay type: functional
[28] = system: Staphylococcus aureus; assay: Antibacterial activity against Staphylococcus aureus ATCC 25923 assessed as inhibition of bacterial growth incubated for 20 hrs in presence of NaCl by broth microdilution method (reference value: 8 microM); assay type: functional
[29] = system: Staphylococcus aureus; assay: Antibacterial activity against Staphylococcus aureus ATCC 25923 assessed as inhibition of bacterial growth incubated for 20 hrs in presence of FeCl3 by broth microdilution method (reference value: 8 microM); assay type: functional
[30] = Systemic toxicity in male BALB/c mouse assessed as lung inflammatory cell infiltration at 105.41 mg/kg, ip administered as single dose by H and E staining based analysis; assay type: organism-based; details: in vivo
[31] = system: Staphylococcus aureus; assay: Synergistic antibacterial activity against gentamicin resistant Staphylococcus aureus ATCC 25923 assessed as fractional inhibitory concentration index at 0.25 to 4 times MIC incubated for 20 hrs in presence of gentamicin by checkerboard assay; assay type: functional
[32] = system: Staphylococcus aureus; assay: Antibacterial activity against Staphylococcus aureus ATCC 25923 assessed as inhibition of bacterial growth incubated for 20 hrs in presence of ZnCl2 by broth microdilution method (reference value: 8 microM); assay type: functional
[33] = Systemic toxicity in male BALB/c mouse assessed as hepatocyte hemorrhage at 105.41 mg/kg, ip administered as single dose by H and E staining based analysis; assay type: organism-based; details: hepatocytes

Compound: POLYMYXIN B
- Activity [1]: inactive
- Activity [2]: 76.2%
- Activity [3]: 100%
- fractional inhibitory concentration index (FICI) [4]: 0.313
- fractional inhibitory concentration index (FICI) [5]: 0.563
- Activity [6]: inactive
- MIC [7]: 2 µM
- Activity [8]: inactive
- Activity [9]: inactive
- MIC [10]: 4 µM
- Activity [11]: inactive

Compound: N=C(N)NCCC[C@H](NC(=O)[C@@H](N)CCCNC(=N)N)C(=O)NCCCC[C@H](NC(=O)[C@H](CCCNC(=N)N)NC(=O)[C@@H](N)CCCNC(=N)N)C(=O)N[C@@H](Cc1c[nH]c2ccccc12)C(=O)N[C@@H](Cc1c[nH]c2ccccc12)C(=O)N[C@@H](Cc1c[nH]c2ccccc12)C(=O)N[C@@H](Cc1c[nH]c2ccccc12)C(N)=O (H-RRK([Arg-Arg])WWWW-NH2)
- Activity [12]: Non-Toxic
- Activity [13]: Dose-Dependent Effect
- Activity [14]: Active
- fractional inhibitory concentration index (FICI) [15]: 0.563
- Activity [16]: Non-Toxic
- fractional inhibitory concentration index (FICI) [17]: 0.563
- selectivity ratio [18]: 1
- Activity [19]: Active
- MHC10 [20]: > 256 µM
- Activity [21]: Active
- Activity [22]: Non-Toxic
- fractional inhibitory concentration index (FICI) [23]: 0.563
- Activity [24]: Active
- Activity [25]: 100%
- MIC [26]: 16 µM

Compound: N=C(N)NCCC[C@H](NC(=O)[C@H](CCCNC(=N)N)NC(=O)[C@H](CCCNC(=N)N)NC(=O)[C@@H](N)CCCNC(=N)N)C(=O)N[C@@H](CCCCN)C(=O)N[C@@H](Cc1c[nH]c2ccccc12)C(=O)N[C@@H](Cc1c[nH]c2ccccc12)C(=O)N[C@@H](Cc1c[nH]c2ccccc12)C(=O)N[C@@H](Cc1c[nH]c2ccccc12)C(N)=O
- Activity [13]: Dose-Dependent Effect
- MIC [27]: 8 µM
- selectivity ratio [18]: 0.5
- MIC [28]: 8 µM
- MIC [29]: 8 µM
- MHC10 [20]: > 256 µM
- Activity [21]: Active
- Activity [30]: Non-Toxic
- fractional inhibitory concentration index (FICI) [31]: 0.5
- Activity [24]: Active
- Activity [25]: 100%
- MIC [32]: 8 µM
- Activity [33]: Non-Toxic
